# Source: patent US20070148710A1, “Cpt resistant cell line” (priority 2003, published 2007)
# Where two headings read alike, the source gives them in different places.
# Experiments:
# [1] = test system: SW948 cells; experiment: clonogenic cell survival assay, CPT-11 IC50; assay type: cell-based; settings: Homo sapiens
# Description: 81. […] Cells were then washed with PBS and cultured in fresh medium without CPT-11 and a colony formation assay initiated. Ten days later, the surviving fraction of the SW948 and SW948CPTH cells was determined.
# 82. […] This level of sensitivity was similar to that reported for other cell lines (Kanzawa et al. Cancer Res 50:5919-5924, 1990; Kojima et al. Cancer Res 58:4368-4374, 1998; and Kojima et al. J Clin Invest 101:1789-1796, 1998).
# [2] = test system: SW948CPTH cells; experiment: clonogenic assay, CPT-11 IC50; assay type: cell-based; settings: Homo sapiens
# Description: 7. […] IC50 was determined using a clonogenic assay.
# Ten days later, the surviving fraction of the SW948 and SW948CPTH cells was determined.
# The cells were then washed, fresh medium added, and plated for colony formation.
# [3] = test system: SW948CPTL cells; experiment: clonogenic assay, CPT-11 IC50; assay type: cell-based; settings: Homo sapiens, read-out: CPT-11 IC50
# Description: 8. […] IC50 was determined using a clonogenic assay.
# [4] = test system: SW948CPTH cell lines recovered from xenografts; experiment: clonogenic assay on cell lines recovered from tumor xenografts; assay type: cell-based; settings: Homo sapiens, cultured 2-4 weeks CPT-11-free
# [5] = test system: SW948 cells; experiment: cell cycle analysis; assay type: cell-based, human
# [6] = test system: SW948CPTH cells; experiment: intracellular accumulation of CPT-11 (HPLC), effect of verapamil; assay type: cell-based, human; settings: SW948CPTH vs parent SW948; CPT-11 160 μM, 2 hours, 37° C. (FIG. 6A)
# Description: (§1) 10. […] Cells were washed, trypsinized, and counted. Cell pellets were lysed with water and sonicated. […] Results were generated from three independent experiments. […] Data are expressed as mean±SD. […] Data are the mean±SD of two experiments done in triplicate.
# (§2) Additionally, multidrug resistance can be evaluated by measuring the expression level of p-glycoprotein (p-gp) (Juliano et al Biochim Biophys Acta 11:152-162, 1976) and breast cancer resistant protein (BCRP) (Doyle et al Proc Natl Acad Sci U S A 95:15665-15670, 1998) in SW948 and the resistant SW948 cell lines (SW948CPTH and SW948CPTL). It is understood that the disclosed methods can also be used with other cell lines including other colon cancer cell lines. For example, the disclosed methods can be used with LS174T, WiDr, HT-29, SW403, DLD-1, SW480, SNU-C1, Caco-2, and COLO 205 cell lines.
# [7] = test system: SW948CPTL cells; experiment: as above; assay type: cell-based, human; settings: SW948CPTL vs parent SW948; CPT-11 160 μM, 2 hours, 37° C. (FIG. 6A)
# Description: as §1, §2
# [8] = test system: SW948 human colon cancer xenografts; experiment: tumor xenograft growth; assay type: in vivo, Balb/c athymic nude mice; settings: initial study: Erbitux 1 mg i.p. every 3 days, CPT-11 40 mg/kg i.v. every 6 days, 3 Gy radiation (FIG. 11); n=7
# Description: 15. […] Erbitux® (1 mg) was administered i.p. every 3 days for 5 weeks beginning on day 22 after tumor cell injection. […] Mean change in tumor size relative to size on day 22 (n=7 mice/group) is shown. At the time of Erbitux® administration (day 22), the mean±SD size of the tumors were 71.8±39.8 mm^2.
# 16. […] Erbitux® (1 mg) was administered i.p. 2 times a week for 3 weeks (days 24, 27, 31, 34, 38, and 41) beginning on day 24 after tumor cell injection. […] Mean change in tumor size relative to size on day 24 (n=7 mice/group). At the time of Erbitux® administration (day 24), the mean±SD size of the tumors were 58.0±29.3 mm^2.
# 91. Additional studies against SW948 colon cancer cells have been carried out in vitro and with SW948 tumor xenografts. […] FIG. 10 illustrates the induction of apoptosis in SW948 cells in vitro following treatment with these agents. […] This experiment was run concurrently with a third experiment in which SW948CPTH cells were used in the xenograft (FIG. 13).
# 92. Balb/c athymic nude mice were injected subcutaneously with 2×10^7 SW948 or SW948CPTH cells. […] Change in average tumor size measured with calipers (surface area equal to product of two largest diameters) for each group relative to the size on day 24 was determined. […] Change in average tumor size relative to day 22 was monitored as described above for SW948 tumors.
# [9] = SW948 parent cell line, dose dependent
compound,measurement,setting,value
"CCc1c2c(nc3ccc(OC(=O)N4CCC(N5CCCCC5)CC4)cc13)-c1cc3c(c(=O)n1C2)COC(=O)[C@]3(O)CC [CPT-11, Irinotecan]",IC50,"[1]; SW948, read-out: CPT-11 IC50 concentration (colony formation)",2.8 µg/mL
same,IC50,"[1]; read-out: CPT-11 IC50 of untreated SW948 cells, untreated SW948, mean value",2.1 ± 0.3 µg/mL
same,IC50,"[2]; 192 h, read-out: CPT-11 IC50, SW948CPTH exposed to 80 μg/ml CPT-11, 8 days when assayed, tested in presence of CPT-11",79 µg/mL
same,IC50,"[2]; 336 h, read-out: CPT-11 IC50, SW948CPTH exposed to 8 μg/ml CPT-11, 14 days when assayed, tested in presence of CPT-11",18.2 µg/mL
same,IC50,"[2]; 480 h, read-out: CPT-11 IC50, SW948CPTH exposed to 8 μg/ml CPT-11, 20 days when assayed, tested in presence of CPT-11",15.6 µg/mL
same,IC50,"[2]; 480 h, read-out: CPT-11 IC50, SW948CPTH exposed to 30 μg/ml CPT-11, 20 days when assayed, tested in presence of CPT-11",18 µg/mL
same,IC50,"[2]; 552 h, read-out: CPT-11 IC50, SW948CPTH exposed to 10 μg/ml CPT-11, 23 days when assayed, tested in presence of CPT-11",21.3 µg/mL
same,IC50,"[2]; 600 h, read-out: CPT-11 IC50, SW948CPTH exposed to 20 μg/ml CPT-11, 25 days when assayed, tested in presence of CPT-11",23.6 µg/mL
same,IC50,"[2]; […], read-out: CPT-11 IC50, SW948CPTH exposed to 30 μg/ml CPT-11, 19 days when assayed, tested in presence of CPT-11",21.3 µg/mL
same,IC50,"[2]; read-out: CPT-11 IC50, SW948CPTH exposed to 20 μg/ml CPT-11, 30 days when assayed, tested in presence of CPT-11",18.2 µg/mL
same,IC50,"[2]; read-out: CPT-11 IC50, SW948CPTH exposed to 20 μg/ml CPT-11, 51 days when assayed, tested in presence of CPT-11",24 µg/mL
same,IC50,"[2]; read-out: CPT-11 IC50, SW948CPTH exposed to 20 μg/ml CPT-11, 60 days, CPT-11 withdrawn for 33 days prior to IC50 determination",19 µg/mL
same,IC50,"[2]; read-out: CPT-11 IC50, SW948CPTH exposed to 20 μg/ml CPT-11, 65 days when assayed, tested in presence of CPT-11",34 µg/mL
same,IC50,"[2]; read-out: CPT-11 IC50, SW948CPTH exposed to 30 μg/ml CPT-11, 47 days when assayed, tested in presence of CPT-11",19 µg/mL
same,IC50,"[2]; read-out: CPT-11 IC50, SW948CPTH exposed to 40 μg/ml CPT-11, 30 days when assayed, tested in presence of CPT-11",55 µg/mL
same,IC50,"[2]; read-out: CPT-11 IC50 Dose, SW948CPTH treated 20 μg/ml CPT-11 62 days, 5 days after removal of CPT-11",25 µg/mL
same,IC50,"[2]; read-out: CPT-11 IC50 Dose, SW948CPTH treated 20 μg/ml CPT-11 62 days, 21 days after removal of CPT-11",18.9 µg/mL
same,IC50,"[2]; read-out: CPT-11 IC50 Dose, SW948CPTH treated 20 μg/ml CPT-11 62 days, 40 days after removal of CPT-11",19 µg/mL
same,IC50,"[2]; read-out: CPT-11 IC50 Dose, SW948CPTH treated 20 μg/ml CPT-11 62 days, 45 days after removal of CPT-11",19.2 µg/mL
same,IC50,"[2]; read-out: CPT-11 IC50 Dose, SW948CPTH treated 20 μg/ml CPT-11 62 days, 68 days after removal of CPT-11",11.4 µg/mL
same,IC50,"[2]; read-out: CPT-11 IC50 Dose, SW948CPTH treated 20 μg/ml CPT-11 62 days, 89 days after removal of CPT-11",13.4 µg/mL
same,IC50,[3]; 168 h,4.8 µg/mL
same,IC50,[3]; 600 h,12.9 µg/mL
same,IC50,[3],16 µg/mL
same,IC50,"[4]; read-out: CPT-11 IC50 Dose, SW948CPTH xenograft #16 (CPT-11 treated tumor), 134 days after implant",24.7 µg/mL
same,IC50,"[4]; read-out: CPT-11 IC50 Dose, SW948CPTH xenograft #51 (untreated tumor), 121 days after implant",18 µg/mL
same,IC50,"[4]; read-out: CPT-11 IC50 Dose, SW948CPTH xenograft #53 (untreated tumor), 124 days after implant",32.2 µg/mL
same,IC50,"[4]; read-out: CPT-11 IC50 Dose, SW948CPTH xenograft #54 (untreated tumor), 103 days after implant",25.1 µg/mL
same,G0-G1(%),"[5]; SW948, CPT-11 1 μg/ml",36.0 ± 3.2%
same,S(%),"[5]; SW948, CPT-11 1 μg/ml",39.6 ± 3.8%
same,G0-G1(%),"[5]; SW948, CPT-11 2 μg/ml",22.1 ± 2.0%
same,G2-M(%),"[5]; SW948, CPT-11 2 μg/ml",35.8 ± 5.1%
same,S(%),"[5]; SW948, CPT-11 2 μg/ml",42.1 ± 6.7%
same,G0-G1(%),"[5]; SW948, CPT-11 5 μg/ml",17.0 ± 1.9%
same,G2-M(%),"[5]; SW948, CPT-11 5 μg/ml",41.0 ± 2.5%
same,S(%),"[5]; SW948, CPT-11 5 μg/ml",42 ± 2.5%
same,change of S phase,[5]; SW948 parent cell line,No obvious changes
same,change of percentage of cells in the G0-G1 phase,[5]; [9],decreased
same,change of percentage of cells in the G2-M phase,[5]; [9],increased
same,intracellular accumulation of CPT-11,[6],lower than the parent cell line SW948
same,intracellular accumulation of CPT-11,[7],lower than the parent cell line SW948
same,complete regressions,[8],0/7
